Legend:
Format in all cases: in vivo
paddy grain [1] = test: Micronutrient absorption levels in paddy grains by ICP; conditions: paddy grain samples
Experimental: Analysis of Micronutrients in Paddy Samples by ICP (Inductive Coupled Plasma) Equipment.
• i. 1 gm of grain powder added to 60 ml of perchloric acid and Nitric acid (9:1) digest for overnight. • ii. Heat at 100° C. for 2 hours until vapors change from red to white color. • iii. The resultant solution filtered through Whatman paper and makeup to 100 ml with 1% nitric acid.

paddy grain [2] = test: Estimation of total phenol content in paddy grain samples (Folin-Ciocalteu); conditions: absorbance at 765 nm
Experimental: Folin-Ciocalteu's Phenol Reagent Preparation: Take 5 ml of folin ciocalteu's phenol reagent in 50 ml of volumetric flask and then make up to the mark with distilled water 7.5% of Na2CO3 Preparation: Take 7.5 g of Na2CO3 in 100 ml of volumetric flask and then make up to mark with distilled water. Sample Procedure: • i. […] Keep it hot plate for extraction at 95° C. for 1 hr. • iii. After 1 hr filter through whatman filter paper 1 and then make up to 25 ml of volumetric flask with 70% methanol. • iv. […] Incubation for 5 mins. • vi. After 5 mins add 4 ml of 7.5% Na2CO3 mix well then keep it dark place incubation for 1 hr. • vii. Measure the absorbance at 765 nm. • viii. […] Check OD @765 nm.

paddy grain [3] = test: Estimation of total protein content in paddy grain samples by Lowry method; conditions: 660 nm
Experimental: To the above solution add 5 g of Na2co3 mix well. B. 1% NAK Tartrate (Sodium Potassium Tartrate) Preparation: • Dissolve 1 g of NAK tartrate in 100 ml of volumetric flask and then make up to mark with distilled water. C. […] Dissolve 100 mg of BSA in 100 ml of volumetric flask and then make up to mark with distilled water. Take 6 test tubes then add to the above solution each of 0.1, 0.2, 0.3, 0.4, 0.5, 0.6. Sample Procedure: • i. […] Then filter through whatman filter paper 1 we take test tubes and add 1 ml of each sample. • iii. Add 4.5 ml of reagent 1 and incubate for 10 mins. • iv. After incubation add 0.5 ml of reagent 2 and incubate for 30 mins. • v. Measure the absorbance at 660 nm and plot the standard graph. The Analysis of protein estimation in grain samples is performed by Lowry method with UV Vis Spectro photo meter at 660 nm.

Structure (SMILES) | B (Boron) (paddy grain [1]) | Ca (Calcium) (paddy grain [1]) | Co (Cobalt) (paddy grain [1]) | Cu (Copper) (paddy grain [1]) | Fe (Iron) (paddy grain [1]) | Mg (Magnesium) (paddy grain [1]) | Mn (Manganese) (paddy grain [1]) | Zn (Zinc) (paddy grain [1]) | Phenol Content (paddy grain [2]) | Total Protein content (paddy grain [3])
O=CO.O=C[O-].[K+] [Potassium diformate] | 35.9 ppm | 399.0 ppm | 14.2 ppm | 35.0 ppm | 397.0 ppm | 678.0 ppm | 50.4 ppm | 66.6 ppm | 17.96 ppm | 0.084 ppm
O=C[O-].[K+] [Potassium formate] | 38.4 ppm | 401.7 ppm | 14.2 ppm | 37.0 ppm | 401.0 ppm | 646.0 ppm | 46.5 ppm | 50.6 ppm | 16.69 ppm | 0.086 ppm

Reference: US20240164385A1, “A SYNERGISTIC PLANT GROWTH STIMULANT COMPOSITION COMPRISING POTASSIUM MONO/DIFORMATE AND METAL ION COMPOUNDS TO ENHANCED METABOLIC ACTIVITIES IN PLANTS” (FERTIS INDIA PVT LTD, priority 2021, published 2024)
